The text below walks through data of PMC7005745 (Scientific Reports, 2020).

Data set [1] deals with Y. pseudotuberculosis serotype III strain YPIII(pIB102E-lux). In kind it is cell-based, Yersinia pseudotuberculosis.
Data set [2] has as its system wild-type P. aeruginosa strain PAK infecting J774 cells.
Data set [3] relates to ExoS expression (T3SS), PAK(pCS500). The class given is cell-based, Pseudomonas aeruginosa. Particulars: read-out: IC50 ExoS-gfp.
A further data set relates to yopE expression (T3SS). In kind it is cell-based, Yersinia pseudotuberculosis. To be noted: for pIC50: read-out: E-lux IC50.
Data set [4] relates to P. aeruginosa PAK(pCS500). The class given is cell-based, Pseudomonas aeruginosa.
Another data set has as its system YopH secretion (T3SS). In kind it is cell-based, Yersinia pseudotuberculosis.
In data set [5] the test system is secretion of Yop effector proteins (T3SS), YPIII(pIB102). In kind it is cell-based, Yersinia pseudotuberculosis. To be noted: 40 µM, Western blot. (Immunoblotting shows a protein as a band on a membrane.)
Data set [6] has as its system Y. pseudotuberculosis YPIII(pIB102; pFU95). In kind it is cell-based, Yersinia pseudotuberculosis.
[7] abbreviates: Y. pseudotuberculosis, LB with 2.5 mM CaCl2, 37 °C, OD600 up to 24 h.
Where [8] appears, read: combined yopE-lux and YopH phosphatase assay.
Setting [9] is: yopE expression, YPIII(pIB102E-lux), T3S-inducing conditions, compounds 1–100 µM.
Where [10] appears, read: YopH secretion, YPIII(pIB102E-lux), T3S-inducing conditions, compounds 1–100 µM.

pIC50: −log10 of the molar value. Read-outs that look alike come from different tables or passages of the source.

For `Oc1ccc([C@H]2c3c(O)cc(O)cc3[C@H]3c4c(cc(O)cc4[C@@H]2O)O[C@@H]3c2ccc(O)cc2)cc1` (racemic) [compound 2, (±)-Ampelopsin A], the Growth inhibition result in [1] (setting [7]) is listed as “No”. Further, the “Efficacy Pa J774” value in data set [2] is “No”. Further, the pIC50 – broadly, the IC50 on a negative log10 scale, so that one unit is a factor of ten – in data set [3] is less than 3.70; in the data set on yopE expression (T3SS) (setting [9]), less than 4.30; with YopH secretion (T3SS) (setting [10]), less than 4.30. Further, the “Inhibition of the T3SS (in words)” value in the data set on yopE expression (T3SS) (setting [8]) is “no or modest inhibition”. Besides, the “Toxicity J774” value in the data set on J774 cells is reported as “No”. Moreover, in [4], the “Tocxicity P.a.” value is “No”.

Turning to `Oc1ccc([C@@H]2Cc3cc(O)cc4c3[C@H](c3cc(O)cc(O)c32)[C@@H](c2ccc(O)cc2)O4)cc1` (racemic) [compound 3, (±)-Ampelopsin B], the Growth inhibition entry in data set [1] is reported as “No”. Besides, the “Efficacy Pa J774” value in data set [2] is “No”. Also, the values for the pIC50 (in data set [3]; with yopE expression (T3SS); in the data set on YopH secretion (T3SS)) were 3.87, less than 4.30 and 4.40, respectively. The “Inhibition of the T3SS (in words)” value with yopE expression (T3SS) is “no or modest inhibition”. Moreover, the “Toxicity J774” value in the data set on J774 cells is “No”. Moreover, the “Tocxicity P.a.” value in data set [4] was “No”.

In the case of `Oc1ccc(/C=C/c2cc(O)cc3c2[C@@H](c2cc(O)cc(O)c2)[C@H](c2ccc(O)cc2)O3)cc1` (racemic) [compound 6, (±)-ε-Viniferin], the Growth inhibition result in data set [1] is listed as “No”. The “Efficacy Pa J774” value in [2] is given as “No”. For the same compound, the figures for the pIC50 (in data set [3]; in the data set with yopE expression (T3SS); with YopH secretion (T3SS)) were 4.05, less than 4.30 and 4.52, respectively. Besides, the “Toxicity J774” value in the data set with J774 cells was “No”. Moreover, the “Tocxicity P.a.” value in [4] is on record as “No”.

Take `Oc1ccc(/C=C/c2cc(O)cc3c2[C@@H](c2cc(O)cc(O)c2)[C@H](c2ccc(O)cc2)O3)cc1` (racemic) [compound 7, (±)-Cis-ε-viniferin (Omega-viniferin)]: the Growth inhibition result in [1] was “No”. The pIC50 in the data set on yopE expression (T3SS) was less than 4.30; in the data set on YopH secretion (T3SS) it was 4.32.

With `Oc1ccc(/C=C/c2cc(O)cc3c2[C@@H](c2cc(O)cc(O)c2)[C@H](c2ccc(O)cc2)O3)cc1` [compound 5, (+)-ε-Viniferin], in data set [1] (setting [7]), the Growth inhibition entry is on record as “No”. In [2], the “Efficacy Pa J774” value is “modest or no efficacy”. The negative logarithm of the IC50 (pIC50) is less than 4.30 in the data set on yopE expression (T3SS) (setting [9]) and 4.82 in the data set on YopH secretion (T3SS) (setting [10]).

On to `Oc1ccc(/C=C\c2cc(O)cc3oc(-c4ccc(O)cc4)c(-c4cc(O)cc(O)c4)c23)cc1` [compound 8, Viniferifuran], for which the Growth inhibition entry in data set [1] (setting [7]) is “without any effect on bacterial growth and No”. Further, the “Reversibility of block of effector secretion (T3SS) after washing” value in data set [5] is reported as “irreversibly block secretion of effector molecules”; in data set [5] (listed as viniferifuran), “irreversible”. Further, the values for the pIC50 (in data set [3]; with yopE expression (T3SS) (setting [9]); with YopH secretion (T3SS) (setting [10])) were 4.96, 5.00 and 5.40, respectively. For the same compound, in the data set on yopE expression (T3SS) (1–100 µM, Fig. 1a), the “Inhibition of yopE expression (in words)” value is reported as “dose-dependent inhibition”. In the data set on yopE expression (T3SS) (setting [8]), the “Inhibition of the T3SS (in words)” value was “good inhibition”. The “Toxicity J774” value in the data set with J774 cells is reported as “Tox”. For the same compound, the “Tocxicity P.a.” value in [4] is recorded as “No”. Besides, in the data set on YopH secretion (T3SS) (1–100 µM, Fig. 1b), the “Inhibition of YopH secretion (in words)” value is “dose-dependent inhibition”.

Turning to `Oc1ccc(-c2oc3ccc(/C=C/c4cc(O)cc(O)c4)cc3c2-c2cc(O)cc(O)c2)cc1` [compound 10, Dehydro-δ-viniferin], the pIC50 in [3] is 5.10; in the data set with yopE expression (T3SS) (setting [9]), 5.30; in the data set on YopH secretion (T3SS) (setting [10]) it was 5.40. Also, in the data set with yopE expression (T3SS) (1–100 µM, Fig. 1a), the “Inhibition of yopE expression (in words)” value is given as “dose-dependent inhibition”. Also, the “Toxicity J774” value in the data set with J774 cells is on record as “Tox”. In addition, the “Tocxicity P.a.” value in data set [4] is given as “No”. Besides, the “Inhibition of YopH secretion (in words)” value with YopH secretion (T3SS) (1–100 µM, Fig. 1b) is recorded as “dose-dependent inhibition”.

With `C#CCOc1ccc(-c2oc3cc(O)cc(/C=C/c4ccc(O)cc4)c3c2-c2cc(O)cc(O)c2)cc1` [compound 13, Propagylated viniferifuran], in the data set with yopE expression (T3SS), the pIC50 was 5.22. Also, in data set [6], the Binding to bacteria entry was “clear binding” and the “Competition of binding by free viniferifuran” value was “binding could be outcompeted”. This compound showed a pIC50 in the data set on YopH secretion (T3SS) of 5.52.

Turning to “(-)-Hopeaphenol [compound 1, reference compound]”, the Growth inhibition result in data set [1] (setting [7]) was “No”. In addition, the “Inhibition of T3SS-mediated cytotoxicity” value in data set [2] (50 µM) is listed as “complete inhibition of cytotoxicity”. The “Reversibility of block of effector secretion (T3SS) after washing” value in data set [5] was “irreversibly block secretion of effector molecules”; in [5] (listed as (-)-hopeaphenol), “irreversible”. Further, the pIC50 in data set [3] was 5.05; with yopE expression (T3SS) (setting [9]), 5.00; in the data set on YopH secretion (T3SS) (setting [10]) it was 5.15. Besides, the “Tocxicity P.a.” value in data set [4] is given as “No”.

With (±)-Dehydro-ampelopsin B [compound 4], the Growth inhibition entry in data set [1] is “No”. In addition, the “Efficacy Pa J774” value in data set [2] is reported as “No”. For the same compound, the pIC50 in [3] was 4.48; in the data set on yopE expression (T3SS), 4.40; with YopH secretion (T3SS), 4.70. In addition, the “Inhibition of the T3SS (in words)” value in the data set with yopE expression (T3SS) was “no or modest inhibition”. Also, in the data set with J774 cells, the “Toxicity J774” value is given as “No”. Besides, the “Tocxicity P.a.” value in [4] was “No”.

Consider (±)-δ-Viniferin [compound 9], for which the Growth inhibition result in data set [1] (setting [7]) is reported as “No”. The pIC50 was 4.54 with yopE expression (T3SS) (setting [9]) and 4.82 in the data set with YopH secretion (T3SS) (setting [10]).

Consider Anigopreissin A [compound 11], for which the Growth inhibition entry in data set [1] was “detrimental effect on bacterial growth and Yes”. The pIC50 in data set [3] was 4.82. Also, in the data set on yopE expression (T3SS), the “Inhibition of yopE expression (in words)” value is on record as “dose-dependent inhibition” and the pIC50 was 4.92. Moreover, the “Toxicity J774” value with J774 cells was “Some tox”. For the same compound, the “Tocxicity P.a.” value in data set [4] was “No”. For the same compound, in the data set with YopH secretion (T3SS), the pIC50 is 5.22 and the “Inhibition of YopH secretion (in words)” value is listed as “dose-dependent inhibition”.
